# From patent US5672585A, “Method and composition for treating thrombosis” (priority 1995, dated 1997)
# Where no end group is shown, it is not given here. [ ]: non-standard residue; d: D form. The star is where a group is joined. Pmc = Cc1c(C)c(S(=O)(=O)*)c(C)c2c1OC(C)(C)CC2; Pen = CC(C)(S)[C@H](N)C(=O)O
# Target: T1, Fibronectin receptor (Fn-R) (Homo sapiens, UniProt P05556+P08648)
# T1 construct: Fibronectin receptor (Fn-R) was similarly purified from (100 mM) octyl glucoside-extracted human placenta; from tissue; host or cells: human placenta
# T1 sequence (P08648 42-894 limits assumed): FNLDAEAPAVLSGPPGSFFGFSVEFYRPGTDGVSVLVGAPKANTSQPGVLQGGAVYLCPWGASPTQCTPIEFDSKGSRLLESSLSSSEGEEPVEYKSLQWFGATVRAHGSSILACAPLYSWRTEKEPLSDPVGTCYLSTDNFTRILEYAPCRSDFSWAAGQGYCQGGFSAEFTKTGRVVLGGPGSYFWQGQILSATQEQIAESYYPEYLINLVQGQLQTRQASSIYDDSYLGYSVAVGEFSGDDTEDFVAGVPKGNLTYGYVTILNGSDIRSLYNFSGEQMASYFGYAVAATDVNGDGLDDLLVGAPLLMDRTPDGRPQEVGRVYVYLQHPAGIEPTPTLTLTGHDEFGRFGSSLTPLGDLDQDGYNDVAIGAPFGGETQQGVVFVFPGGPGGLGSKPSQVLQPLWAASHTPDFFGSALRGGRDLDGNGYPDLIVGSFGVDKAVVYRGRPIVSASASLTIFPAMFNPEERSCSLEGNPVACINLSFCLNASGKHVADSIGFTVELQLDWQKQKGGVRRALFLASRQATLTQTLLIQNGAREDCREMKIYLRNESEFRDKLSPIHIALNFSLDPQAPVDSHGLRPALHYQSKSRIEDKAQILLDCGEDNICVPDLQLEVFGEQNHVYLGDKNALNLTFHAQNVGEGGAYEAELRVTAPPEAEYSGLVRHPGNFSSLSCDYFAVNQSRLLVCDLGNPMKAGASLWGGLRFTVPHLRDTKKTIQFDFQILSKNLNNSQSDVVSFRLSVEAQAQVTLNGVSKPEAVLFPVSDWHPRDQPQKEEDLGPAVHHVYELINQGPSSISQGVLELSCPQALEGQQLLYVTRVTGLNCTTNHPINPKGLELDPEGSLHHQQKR
# T1 sequence (P08648 895-1049 partner limits assumed): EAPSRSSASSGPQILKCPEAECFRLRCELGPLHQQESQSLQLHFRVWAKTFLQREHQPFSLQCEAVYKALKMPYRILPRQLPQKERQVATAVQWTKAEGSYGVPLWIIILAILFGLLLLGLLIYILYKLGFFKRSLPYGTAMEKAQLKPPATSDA
# T1 sequence (P05556 21-798): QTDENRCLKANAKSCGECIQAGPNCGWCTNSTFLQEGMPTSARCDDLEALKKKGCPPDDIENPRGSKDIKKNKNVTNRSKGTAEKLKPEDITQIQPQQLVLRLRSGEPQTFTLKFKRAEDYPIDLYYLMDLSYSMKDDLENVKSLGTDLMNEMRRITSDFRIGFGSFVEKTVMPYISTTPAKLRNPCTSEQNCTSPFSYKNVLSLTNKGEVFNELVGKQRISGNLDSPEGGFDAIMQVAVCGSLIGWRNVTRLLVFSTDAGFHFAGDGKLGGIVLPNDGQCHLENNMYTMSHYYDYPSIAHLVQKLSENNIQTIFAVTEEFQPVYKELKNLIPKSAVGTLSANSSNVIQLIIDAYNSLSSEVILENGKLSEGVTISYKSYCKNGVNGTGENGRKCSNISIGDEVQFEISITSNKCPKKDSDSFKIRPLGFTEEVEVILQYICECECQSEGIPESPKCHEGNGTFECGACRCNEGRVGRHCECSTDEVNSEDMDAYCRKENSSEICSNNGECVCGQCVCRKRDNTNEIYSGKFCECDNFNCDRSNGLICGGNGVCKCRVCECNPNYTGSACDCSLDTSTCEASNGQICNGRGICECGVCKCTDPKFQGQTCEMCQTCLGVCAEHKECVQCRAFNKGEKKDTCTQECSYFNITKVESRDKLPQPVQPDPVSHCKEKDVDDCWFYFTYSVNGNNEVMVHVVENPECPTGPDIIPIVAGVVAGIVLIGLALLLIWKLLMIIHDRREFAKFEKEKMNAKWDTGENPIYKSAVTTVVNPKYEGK
# Assay: FnR binding, competitive ELISA (Table I)
# Conditions: purified receptor, * concentrations unconfirmed by amino acid composition analysis
row,Substance,IC50
1,FRGDSPDG,2.4 µM

# Target: vitronectin receptor (Vn-R)
# Assay: VnR binding, ELISA or liposome attachment assay (Table I)
# Design: species or system human
# Conditions: purified receptor
# Experimental: Receptor and ligand purifications were performed according to the methods in this Example or those in Examaple XI.C. Receptors were purified according to the procedures of Pytela et al. (Methods Enzymol. 144:475 (1987)), incorporated herein by reference. […] Except where stated, all procedures were carried out at 4° C. The peptide column was washed with three volumes of Tris-buffered saline (TBS) containing 1 mM Ca^2+ and 25 mM OG and then with TBS containing 1 mM Ca^2+ and 25 mM octyl thioglucoside (OTG) at room temperature. […] Finally, Ca^2+ and Mg^+2 were added to eluted fractions to achieve final concentrations of 1 mM for both ions.
# This assay was performed with minor modifications, according to the method of Pytela et al., Methods Enzymol. 144:475 (1987), incorporated herein by reference. Briefly, 1:4 mixture of labelled and unlabelled phosphatidylcholine (PC) liposomes was dissolved under nitrogen and diluted with an equal volume of purified receptor (purified as described in Example II) to achieve a fixed predetermined receptor-liposome concentration ratio. This mixture was then dialyzed overnight at 4° C. in phosphate buffered saline (PBS) containing 1 mM Ca^2+. An aliquot of the dialyzed sample was counted to assess radioactive content; the receptor-liposome mixture was then diluted to obtain a set radioactivity per unit volume.
# Microtiter plates were coated with 10 μg of vitronectin. Non-specific sites were blocked for 2 hours at 37° C. in PBS containing 5 mg/ml BSA and 1 mM each of CaCl2 and MgCl2. The plates were then rinsed twice with PBS containing 1 mM Ca^+2 and Mg^+2, and 100 μl of the liposome-receptor mixture was added to each well. If necessary, peptides were added before this step in a 1-10% dilution. The plates were then incubated at 4° C. for 24 hours. The following day, the liquid in each well was aspirated and the plates were washed twice with PBS containing 1 mM Ca^+2 and Mg^+2. Finally, 100 μl of 2% SDS was added, the plates were shaken for 10-15 minutes, and the supernatants were collected, vortexed, and subjected to liquid scintillation counting. This procedure typically yielded ca. 1000 total and 100 non-specific counts per well.
# In parallel studies with the platelet aggregation experiments (described in Example V), the apparent affinities of peptides for GP IIbIIa, fibronectin and vitronectin receptors were determined. Receptor-binding assays (as described in Examples III and IV) with purified receptors, were used to assess the abilities of the peptides to displace the binding of receptors to their receptor-specific ligands.
# Those for VnR and GP IIb/IIIa were determined either by ELISA or liposome attachment assay (Example IV).
row,Substance,IC50
1,FRGDSPDG,0.04 µM
2,YRGDSPDG,0.08 µM
3,LRGDSPDG,0.2 µM

# System: canine platelets
# Assay: Canine platelet aggregation in vitro (ADP, arachidonic acid, collagen)
# Format: cell-based, dog
# Conditions: stimulated by 10 μm ADP, […] arachidonic acid or 9.6 micrograms/ml collagen; read-out: IC50 against canine platelet aggregation
row,Substance,IC50
1,R(Pen)GRGDWPCR [Peptide 4R],1.5 to 5 µM

# Same assay, conditions: stimulated by 10 μm ADP, […] arachidonic acid or 9.6 micrograms/ml collagen; read-out: concentration inhibiting all three canine platelet aggregation responses by 50%
row,Substance,IC50
1,GRGDSP [reference compound],~130 µM

# System: platelets
# Assay: Ex vivo platelet aggregation in the canine coronary thrombosis study
# Conditions: dog, 10 mg/kg injection
# Experimental: For all ex vivo studies (see FIGS. 3A, 3B1, 3B2, 3B3, 3C1 and 3C2), control aggregation values were standardized to the percentages of light transmission observed in PRP and PPP samples (0% and 100%, respectively).
# (§1) Animals were randomly assigned to two treatment groups: vehicle control (i.e., normal saline) or RGD peptides at various concentrations. Peptides were administered intra-atrially in both bolus and continuous injections. Each bolus injection consisted of 0.5 to 10 mg/kg and was administered 15 minutes before application of the current. A continuous infusion of the same peptide was then started immediately after completion of this initial injection. Animals received a 25 μg/kg/min to 200 μg/kg/min infusion. The anti-thrombotic effects of the peptides were monitored until 30 minutes after the occurrence of a persistent, occlusive thrombus or five hours after the initiation of electrical stimulation (whichever resulted first). If an occlusive thrombus had not developed within four hours after the initiation of current, the peptide infusion was stopped.
# Platelet counts and ex vivo aggregation studies were performed one hour before and 1, 3, and 5 hours after application of anodal direct current.
# Platelet aggregation was also determined ex vivo at one, three, and five hours after current application. For these studies, arachidonic acid, or collagen was again used to stimulate the platelets.
row,Substance,"ex vivo platelet aggregation by ADP, AA and collagen"
1,R(Pen)GRGDWPCR [Peptide 4R],unresponsive to all modes of stimulation at all time points

# System: coronary thrombosis
# Assay: Electrically induced canine coronary thrombosis, time to full occlusion
# Format: in vivo
# Conditions: dog, 3 mg/kg
# Experimental: Male mongrel dogs weighing 14 to 20 kg were selected based on proper aggregation of their platelets in response to arachidonic acid, collagen, and adenosine disphosphate (ADP) and based on similar weights and hemodynamic properties.
# Before surgery, the animals were anesthetized with sodium pentobarbital (30 mg/kg, i.v.) and then intubated and ventilated on room air with positive pressure using a respirator (Harvard Apparatus, S. Natick, Mass.) at a volume of 30 ml/kg and a frequency of 12 breaths/min. Surgery, performed under aseptic conditions, was begun with the placement of cannulae into the left carotid artery and jugular vein for monitoring arterial blood pressure (Statham P23 pressure transducer, Gould, Inc., Cardiovascular Products, Oxnard, CA) and administering intravenous fluids.
# The heart was exposed via a left thoracotomy through the 5th intercostal space. A 2-cm segment of the left circumflex coronary artery (LCCA) was isolated from surrounding tissue by blunt dissection. […] The intra-coronary electrode was constructed by attaching a 25-gauge hypodermic needle tip to a 30-gauge Teflon-insulated silver-coated copper wire. The mechanical occluder was constructed of stainless steel in a C shape with a Teflon screw (2 mm diameter) on top. It was adjusted to control vessel circumference and decrease the reactive hyperemic flow due to a 10-sec (full) occlusion by 50-70% without affecting basal coronary blood flow (FIG. 1C). A monopolar epicardial electrode was sutured to the surface of the ventricle in the region of LCCA distribution to monitor ischemic changes in the electrocardiogram (ECG). The left atrium was cannulated with polythylene tubing for administration of the peptide. Continuous recordings of blood pressure, limb lead II ECG, epicardial electrogram, and mean and phasic LCCA blood flow were obtained on a Model 7 polygraph (Grass Instrument Co., Quincy, Mass.).
# One hour after the completion of surgery, a 100 micro-amp continuous anodal direct current delivered from a 9 volt nickel-cadmium battery was applied to the intimal surface of the LCCA. The anode of the battery was in series with a 250,000 ohm potentiometer and the intraluminal coronary artery electrode. The electric circuit was completed by placing the cathode in a subcutaneous site. Electrical stimulation was applied for three hours. At the conclusion of each experiment, the heart was fibrillated electrically and quickly removed, and the LCCA was dissected free as far as possible to verify the position of the implanted anodal electrode.
# as §1
# Coronary thrombosis was quantified as the time to full occlusion. The effects of the various peptide treatments on coronary thrombosis is illustrated in FIG. 4.
row,Substance,"coronary thrombosis, occlusion"
1,R(Pen)GRGDWPCR [Peptide 4R],ineffective

# Same assay, conditions: dog, 10 mg/kg
row,Substance,"coronary thrombosis, time to full occlusion"
1,R(Pen)GRGDWPCR [Peptide 4R],prevented occlusion throughout the duration of the study

# System: platelets
# Assay: Ex vivo inhibition of platelet aggregation (Table IV)
# Format: in vivo, dog
# Conditions: dose as listed per peptide in Table IV
# Experimental: Platelet aggregation assays were performed following the methods of this Example or those of Example IX.G. Platelet aggregation was assessed using the method of Born, (Nature 194:927-929 (1962)), incorporated herein by reference. Briefly, the change in light transmission was measured through a stirred suspension of platelets in an aggregometer (Model 400 VS, Chrono-Log, Hayertown, Pa., USA). […] In studies using thrombin, the PRP was gel-filtered on Sepharose 2B in divalent ion-free Tyrode's solution containing 2% BSA. For all studies, the reference standard was platelet-poor plasma, which was obtained by centrifuging PRP at 1000×g for 5 min.
# All aggregation studies were performed at 37° C. with a constantly stirred suspension of 3×10^8 platelets/ml. (Platelet count was determined with the aid of a hemacytometer.) Peptides and stimulants were added to these suspensions in 1% dilutions. The PRP and gel-filtered platelets were used within three hours from the time of blood collection.
# Peptide anti-aggregation potencies were determined from dose-responsive curves for the inhibition of the maximum aggregation responses stimulated by physiologic doses of ADP (10 μm) and thrombin (2 U/ml).
# Using the method described in Example V to measure ex vivo inhibition of platelet aggregation and the method described in Example VII to measure bleeding, four additional peptides were tested. These peptides included 11J, 11Q, 11K and 11V.
row,Substance,ex vivo inhibition of platelet aggregation (%)
1,Ac- CNPRGD(Y--OMe)EC--NH2 [Peptide 11J],> 98%
2,Ac- CNPRGD(Y--OMe)(Nle)C--NH2 [Peptide 11V],> 98%
3,Ac- CNPRGD(Y--OMe)AC--NH2 [Peptide 11K],> 98%
4,Ac- CNPKGD(Y--OMe)RC--NH2 [Peptide 11Q],> 95%

# Same assay, conditions: doses of Table IV
row,Substance,ex vivo platelet aggregation
1,Ac- CNPRGD(Y--OMe)EC--NH2 [Peptide 11J],inhibited ex vivo platelet aggregation
2,Ac- CNPRGD(Y--OMe)(Nle)C--NH2 [Peptide 11V],inhibited ex vivo platelet aggregation
3,Ac- CNPRGD(Y--OMe)AC--NH2 [Peptide 11K],inhibited ex vivo platelet aggregation
4,Ac- CNPKGD(Y--OMe)RC--NH2 [Peptide 11Q],inhibited ex vivo platelet aggregation

# System: platelets
# Assay: not given
# Format: cell-based
# Conditions: not given
# Experimental: Platelet aggregation was assessed using the method of Born, Nature 194:927-929 (1962), incorporated herein by reference. Briefly, the change in light transmission was measured through a stirred suspension of platelets in an aggregometer (Model 400 VS, Chrono-Log, Hayertown, Pa., USA). […] In studies using thrombin, the PRP was gel-filtered on Sepharose 2B in divalent ion-free Tyrode's solution containing 2% BSA. For all studies, the reference standard was platelet-poor plasma, which was obtained by centrifuging PRP at 1000×g for 5 min.
# All aggregation studies were performed at 37° C. with a constantly stirred suspension of 3×10^8 platelets/mL. (Platelet count was determined with the aid of a hemacytometer.) Peptides and stimulants were added to these suspensions in 1% dilutions. The PRP and gel-filtered platelets were used within three hours from the time of blood collection.
# The peptides described in this Example were synthesized according to the methods of Examples I and XI. Selectivity and potency were measured according to the methods of Examples II through XI. The peptide identification numbers used in this Example are consistent and relevant to this Example only. Some of the peptides are identified by other nomenclature elsewhere in this document.
row,Substance,increase in platelet aggregation potency relative to analogue 26
1,Ac-CIPRGD(Y-OMe)RC-NH2 [Peptide 10R],3-4 fold

# Same assay, conditions: more potent than analogue 1
row,Substance,platelet aggregation potency relative to analogue 1
1,(Pmp)GHRGDLRCA,2 fold

# Same assay, conditions: more potent than analogue 3
row,Substance,platelet aggregation potency relative to analogue 3
1,R(Pmc)GHRGDLRCR [analogue 5],3 fold
2,R(Tmc)GHRGDLRCR [analogue 7],2 fold
3,R(D-Pen)GHRGDLRCR [analogue 4],2 fold

# Same assay, conditions: substitution of Arg at position 4
Substance,decrease in platelet aggregation potency relative to analogue 32,platelet aggregation potency compared with analogue 32,inhibitory activity retained relative to analogue 32
Ac- CNPRGD(Y--OMe)EC--NH2 [Peptide 11J],15 fold,–,–
Ac- CNPRGD(Y--OMe)(dR)C--NH2 [Peptide 11L],–,decrease in potency,–
Ac- CNPRGD(Y--OMe)KC--NH2 [Peptide 11R],–,–,20%
Ac- CNPRGD(Y--OMe)(Cit)C--NH2 [Peptide 11S],–,substantial decreases in platelet aggregation potency,–
Ac- CNPRGD(Y--OMe)AC--NH2 [Peptide 11K],–,substantial decreases in platelet aggregation potency,–

# Same assay, conditions: substitution of Leu at position 3
row,Substance,increase in platelet aggregation potency relative to analogue 5
1,R(Pmc)GHRGDVRCR,4 fold
2,R(Pmc)GHRGDFRCR,~5 fold

# System: platelets
# Assay: Thrombin-stimulated platelet aggregation (Table I)
# Conditions: read-out: Thrombin Stimulated Aggregation; thrombin 2 U/ml, gel-filtered platelets, 37° C.
row,Substance,IC50
1,R[Pen]GRGDSRCA (cysteine pairing not given here),12 µM
2,R(Pen)GRGDTPCA,3.1 µM
3,G(Pen)GRGDTPCA,28 µM
4,G(Pen)LRGDSPCA,308 µM
5,R2(Pen)GRGDTPCA,2.7 µM
6,R[Pen]GRGDLRCA (cysteine pairing not given here),13 µM
7,G(Pen)GHRGDTRCA,17 µM
8,G(Pen)LRGDSRCA,49 µM
9,R(Pen)GRGDTPCR,2 µM
10,R(Pen)GRGDWPCR [Peptide 4R],0.53 µM

# System: platelets
# Assay: ADP-stimulated platelet aggregation in platelet-rich plasma (Table I)
# Conditions: read-out: ADP-Stimulated Aggregation; ADP 10 μm, citrated platelet-rich plasma, 37° C.; * concentrations unconfirmed by amino acid composition analysis
row,Substance,IC50
1,R[Pen]GRGDSRCA (cysteine pairing not given here),12 µM
2,R(Pen)GRGDTPCA,7 µM
3,G[Pen]GRGDSFCA (cysteine pairing not given here),115 µM
4,G(Pen)GRGDTPCA,22.3 µM
5,R(Pmc)GHRGDVRCR,0.69 µM
6,G(Pen)LRGDSPCA,415 µM
7,G(Pen)GRGDRPCA,22.3 µM
8,R2(Pen)GRGDTPCA,8.2 µM
9,G(Pen)LRGDTPCA,86 µM
10,R[Pen]GRGDLRCA (cysteine pairing not given here),16 µM
11,(t-but-am-Pmp)GHRGDLR(Pen)A [(t-but-am-P mp)GHRGDLR(Pen)A],89 µM
12,R[Pen]GHRGDTRCR (cysteine pairing not given here),8.8 µM
13,R(Pen)GRGDTPCK,7.6 µM
14,R(Pmc)GHRGDYRCR,1 µM
15,(Pmp)GRGDTPCA,85 µM
16,G[Pen]YRGDSPCA (cysteine pairing not given here),47 µM
17,G(Pen)GHRGDTRCA,11.3 µM
18,Ac-CNPRGD(O-N-Butyl-Y)RC-NH2 [Ac CNPRGD(O-n-butyl-Tyr)RC--NH2],0.1 µM
19,R(Pmc)GHRGDFRCR,0.62 µM
20,G(Pen)FRGDSFCA,> 200 µM
21,R(orn)GHRGDLRDR,> 200 µM
22,G(Pen)LRGDSRCA,41 µM
23,R(Pen)GRGDTPCR,6.3 µM
24,L(Pen)GHRGDLRCA,10.5 µM
